# Reference: US5686448A (priority 1995, dated 1997)
# Like-named read-outs stand apart in the source and are kept apart here.
# Columns and labels:
# HSV-2 (333 strain) = details: for % plaque inhibition: 2 hours pre-incubation
# Method: In Series No. 1 of Example No. 1, monolayer cultures of Vero, RK-13 (rabbit kidney), and WISH (human amnion, Hayflick) cells were used in the experiments of Example No. 1. The cells were grown in Basal Minimal Eagle's Media supplemented with 5% fetal calf serum, 1% glutamine, sodium bicarbonate and antibiotics. Cultures were maintained in a maintenance media that was the same media, except that the maintenance media contained 2% fetal calf serum. An F Strain of HSV-1 was chosen because it is a well-known prototype of HSV-1. This F Strain can be obtained from the American Type Culture Collection (ATCC), 12301 Parklawn Drive, Rockville, Md. 20852, at which it is identified as ATC-VR 733. For studies with HSV-2, a G strain of HSV-2 (ATCC-VR 734) and a 333 strain of HSV-2 were selected. These strains also can be obtained from the ATCC.
# Accordingly, the pre-inoculation experiments measured the effect of the drug on a cell that was already infected with the virus. The pre-incubation experiments measured the cell cultures that were treated with the drug prior to the inoculation to determine if these cells then would be permissive or non-permissive to the tested virus. In these experiments, plaque reduction assays provided a quantitative measure of antiviral activity and was deemed to be reliable and objective.
# In the pre-incubation experiments, the media was either decanted or gently aspirated from the cultures. After decanting or aspirating, 1 ml of the drug dilution plus maintenance media was added to the cultures. The cultures that served as virus controls or cell controls received 2 ml of maintenance media. After the pre-treatment period, the media was again aspirated and the cell cultures were infected with the virus.
# When this occurred, the cultures were fixed and stained with crystal violet. The plaque were then carefully counted under the microscope. By such a counting and careful comparison, percentages of plaque inhibition in the treated cultures were then calculated.
# The 333 strain, which can be obtained from ATCC, was used.
# [1] = test system: Flow 1000 cells (foreskin cells); details: 25 mg/ml, 48 hours
# Method: Healthy confluent monolayer cell cultures were overlaid with 1 ml of the drug and incubated for 48 hours at 37° C. and then stained. Cell cultures with maintenance media were used as controls.
# HSV-2 = details: for Percent Reduction of lesions / # of lesions: TEAC ointment from 12-16 hours p.i.
# Method: Female guinea pigs (obtained from Charles River, Inc.) weighing approximately 200 g were used as a model for HSV-2 skin lesions. The animals were anesthetized with 0.15 ml of Ketamine-Rompum mixture. The animals were first shaved on their back with a hair clipper and then treated with a depilatory cream (Nair). The denuded area was washed well and then dried. A tuberculin tyne was washed with ethanol and air dried.
# Two methods were tried for infecting the animals with the virus. In one, a drop of HSV-2 suspension was placed on the skin and the skin was punctured with the tyne. In the second method, the tyne was dipped in the virus suspension before puncturing the skin.
# In the first experiment, each of 3 guinea pigs was infected on three areas of their backs. At 3 days post infection, treatment was begun on one side of each animal, leaving the other side untreated as a control.
# The animals were examined daily for vesicles (V), crust (C) and for erythema (R) alone.
# In the next experiment 6 guinea pigs were infected in the same manner as the initial 3 guinea pigs. Treatment was begun 12-16 hours post infection. […] Lesions showing an erythematous base with either a blister or a crust on top were considered to HSV specific. […] Both the control animals and treated animals were carefully read in the same manner.
# [2] = test system: RK-13, Vero and WISH cells
# HSV-1 (McKrae strain) = details: 20 mg/ml
# [3] = test system: HSV types 1 and 2 (herpes simplex)
# [4] = Exp. 1D, added after adsorption, 25.0 mg/culture
# [5] = Exp. 1D, added after adsorption, 50.0 mg/culture
# [6] = Patient B, fourth treatment 4.8 cc
# [7] = Patient B, third treatment 4.5 cc
# [8] = Patient I, three months after second infusion
structure (smiles),measurement,setting,value
"CC[N+](CC)(CC)CC.[Cl-] [TEAC, tetraethylammonium chloride]",sensitivity to TEAC vs HSV-1,HSV-2 (333 strain); 333 strain,even more sensitive to TEAC than HSV-1
same,% plaque inhibition,HSV-2 (333 strain); 12.5 mg/culture,25%
same,% plaque inhibition,HSV-2 (333 strain); 25 mg/culture,42%
same,% plaque inhibition,HSV-2 (333 strain); 50 mg/culture,56%
same,inhibition of in vitro replication,"HSV-2 (333 strain); HSV-2, summary",inhibited the in vitro replication of HSV-1 and HSV-2
same,toxicity,[1],toxicity
same,Percent Reduction of lesions,HSV-2; day 3 P.I.,21%
same,# of lesions,"HSV-2; day 3 P.I., control 19",15
same,Percent Reduction of lesions,HSV-2; day 4 P.I.,27.5%
same,# of lesions,"HSV-2; day 4 P.I., control 40",29
same,Percent Reduction of lesions,HSV-2; day 5 P.I.,58.5%
same,# of lesions,"HSV-2; day 5 P.I., control 41",17
same,Percent Reduction of lesions,HSV-2; day 6 P.I.,58.3%
same,# of lesions,"HSV-2; day 6 P.I., control 36",15
same,lesion appearance,"HSV-2; first experiment, 4 times daily from 3 days p.i.",did not crust but appeared to be faded by 6 days post infection
same,dermatitis,"HSV-2; first experiment, day 4 after treatment, probably due to TEAC or its vehicle or both",a rash appeared
same,number and size of lesions,HSV-2; given 12-16 hours p.i.,"significant reduction in the number of lesions, but also in their size"
same,rupture and crusting of lesions,HSV-2; given 12-16 hours p.i.,neither ruptured nor crusted
same,vesicle formation,HSV-2; given 12-16 hours p.i.,less vesicles formed
same,vesicles,HSV-2; given 3 days p.i.,reduced in elevation and eventually resolved
same,number and appearance of lesions vs control,HSV-2; treatment from 12-16 hours p.i.,marked difference between the two groups
same,% plaque inhibition,"HSV-1 (F strain); Exp. 1C, added after inoculation, 0.62 mg/culture",30%
same,% plaque inhibition,"HSV-1 (F strain); Exp. 1C, added after inoculation, 1.25 mg/culture",39%
same,% plaque inhibition,"HSV-1 (F strain); Exp. 1C, added after inoculation, 2.50 mg/culture",46%
same,% plaque inhibition,"HSV-1 (F strain); Exp. 1C, added after inoculation, 5.00 mg/culture",45%
same,% plaque inhibition,"HSV-1 (F strain); Exp. 1C, added after inoculation, 10.00 mg/culture",56%
same,antiviral activity,"HSV-1 (F strain); Exp. 1C, all dilutions",Antiviral activity was seen in all dilutions tested
same,% plaque inhibition,"HSV-1 (F strain); Exp. 1D, added after adsorption, 6.2 mg/culture",20%
same,% plaque inhibition,"HSV-1 (F strain); Exp. 1D, added after adsorption, 12.5 mg/culture",62%
same,plaque formation,"HSV-1 (F strain); Exp. 1D, added after adsorption, 25 mg/culture",no plaque formed
same,% plaque inhibition,HSV-1 (F strain); [4],100%
same,"cell layer appearance (thin = cells attached, monolayer not confluent)",HSV-1 (F strain); [4],thin
same,plaque formation,"HSV-1 (F strain); Exp. 1D, added after adsorption, 50 mg/culture",no plaque formed
same,% plaque inhibition,HSV-1 (F strain); [5],100%
same,"cell layer appearance (thin = cells attached, monolayer not confluent)",HSV-1 (F strain); [5],thin
same,inhibition of in vitro replication,"HSV-1 (F strain); HSV-1, summary",inhibited the in vitro replication of HSV-1 and HSV-2
same,reversibility of toxicity (thin) / morphology changes,"[2]; drug removed, fresh media added",totally reversible
same,change in morphology or cytopathic effect,[2]; one to seven hours exposure,No change in morphology or cytopathic effect
same,rate of growth vs cultures without TEAC,[2]; one to seven hours exposure,no difference in the rate of growth
same,toxicity to cells,[2]; one to seven hours exposure,not toxic to cells
same,virus yield,"HSV-1 (McKrae strain); cell, 6 hours P.I., 10^-1",2 PFU/ml
same,virus yield,"HSV-1 (McKrae strain); cell, 6 hours P.I., 10^-2",5 PFU/ml
same,virus yield,"HSV-1 (McKrae strain); cell, 6 hours P.I., Und.",12 PFU/ml
same,virus yield,"HSV-1 (McKrae strain); cell, 10 hours P.I., 10^-1",3 PFU/ml
same,virus yield,"HSV-1 (McKrae strain); cell, 10 hours P.I., 10^-2",0 PFU/ml
same,virus yield,"HSV-1 (McKrae strain); cell, 10 hours P.I., Und.",13 PFU/ml
same,virus yield,"HSV-1 (McKrae strain); cell, 20 hours P.I., 10^-1",5 PFU/ml
same,virus yield,"HSV-1 (McKrae strain); cell, 20 hours P.I., 10^-2",0 PFU/ml
same,virus yield,"HSV-1 (McKrae strain); cell, 20 hours P.I., Und.",42 PFU/ml
same,virus yield,"HSV-1 (McKrae strain); cell, 24 hours P.I., 10^-1",32 PFU/ml
same,virus yield,"HSV-1 (McKrae strain); cell, 24 hours P.I., 10^-2",10 PFU/ml
same,virus yield,"HSV-1 (McKrae strain); cell, 24 hours P.I., Und.",58 PFU/ml
same,virus yield,"HSV-1 (McKrae strain); cell, 28 hours P.I., 10^-1",TMTC
same,virus yield,"HSV-1 (McKrae strain); cell, 28 hours P.I., 10^-2",15 PFU/ml
same,virus yield,"HSV-1 (McKrae strain); cell, 28 hours P.I., Und.",W.O.
same,virus yield,"HSV-1 (McKrae strain); supernatant, 6 hours P.I., 10^-1",0 PFU/ml
same,virus yield,"HSV-1 (McKrae strain); supernatant, 6 hours P.I., 10^-2",0 PFU/ml
same,virus yield,"HSV-1 (McKrae strain); supernatant, 6 hours P.I., 10^-3",0 PFU/ml
same,virus yield,"HSV-1 (McKrae strain); supernatant, 10 hours P.I., 10^-1",0 PFU/ml
same,virus yield,"HSV-1 (McKrae strain); supernatant, 10 hours P.I., 10^-2",0 PFU/ml
same,virus yield,"HSV-1 (McKrae strain); supernatant, 10 hours P.I., 10^-3",0 PFU/ml
same,virus yield,"HSV-1 (McKrae strain); supernatant, 20 hours P.I., 10^-1",0 PFU/ml
same,virus yield,"HSV-1 (McKrae strain); supernatant, 20 hours P.I., 10^-2",0 PFU/ml
same,virus yield,"HSV-1 (McKrae strain); supernatant, 20 hours P.I., 10^-3",0 PFU/ml
same,virus yield,"HSV-1 (McKrae strain); supernatant, 24 hours P.I., 10^-1",0 PFU/ml
same,virus yield,"HSV-1 (McKrae strain); supernatant, 24 hours P.I., 10^-2",0 PFU/ml
same,virus yield,"HSV-1 (McKrae strain); supernatant, 24 hours P.I., 10^-3",0 PFU/ml
same,virus yield,"HSV-1 (McKrae strain); supernatant, 28 hours P.I., 10^-1",0 PFU/ml
same,virus yield,"HSV-1 (McKrae strain); supernatant, 28 hours P.I., 10^-2",0 PFU/ml
same,virus yield,"HSV-1 (McKrae strain); supernatant, 28 hours P.I., 10^-3",0 PFU/ml
same,oral lesion resolution,"[3]; Patient B, 3 days after first infusion",resolution occurring in a shorter than usual time
same,severity of attack,"[3]; Patient B, about a month after second treatment",the attack was never serious and that no lesion appeared
same,attacks,"[3]; Patient B, about a month later",no more attacks
same,aura and lesion,"[3]; Patient B, day after second 3.7 cc",absence of an aura and no occurrence of the expected lesion except for a very small lesion
same,duration of penile lesions,[3]; [6],8 days
same,value of treatment,[3]; [6],the last treatment appeared of no value
same,recurrences,[3]; [7],recurrences were not eliminated
same,time to disappearance of penile lesion,[3]; [7],2 to 3 days
same,fever blisters,[3]; Patient C,cleared right away
same,labial lesions,[3]; Patient C,two attacks of labial lesions cleared rapidly
same,forehead lesion,"[3]; Patient C, about a month later",crusted relatively quickly
same,further problems,"[3]; Patient C, five and ten months after initial treatment",no further problems
same,lesions,"[3]; Patient C, next day, 3.85 cc (5 mg/kg)",markedly improved
same,infection,"[3]; Patient I, first infusion 4.7 cc",all clear
same,further lesions,[3]; [8],no further lesions until one developed in the preceding week
same,nocturnal headaches,[3]; [8],no further nocturnal headaches
